How the values were obtained:
[1] = biological target: T1, Type-1 angiotensin II receptor (Oryctolagus cuniculus, UniProt P34976); assay: Binding affinity against Angiotensin II type 1 Receptor in rabbit aortic tissue; type: tissue-based, Aorta
T1 sequence (P34976 whole entry): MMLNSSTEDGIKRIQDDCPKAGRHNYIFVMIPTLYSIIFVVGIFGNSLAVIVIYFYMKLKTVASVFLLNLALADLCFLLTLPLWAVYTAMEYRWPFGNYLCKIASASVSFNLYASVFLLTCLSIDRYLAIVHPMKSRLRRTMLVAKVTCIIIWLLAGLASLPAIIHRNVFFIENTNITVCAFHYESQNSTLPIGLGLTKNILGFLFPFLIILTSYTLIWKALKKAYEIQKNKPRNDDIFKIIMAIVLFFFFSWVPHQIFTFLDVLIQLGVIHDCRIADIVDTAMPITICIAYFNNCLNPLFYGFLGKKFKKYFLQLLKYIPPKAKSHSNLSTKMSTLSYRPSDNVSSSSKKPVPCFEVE

[2] = Tested for Lipophilicity of the compound; type: physicochemical; conditions: octanol/water
[3] = biological target: T1, Type-1 angiotensin II receptor; assay: Ability to displace [125I]Sar1-Ile8-AII from Angiotensin II receptor, type 1 in rabbit aorta in presence of 0.2% bovine serum albumin (BSA) was determined in vitro; type: tissue-based

IC50 [1] [nM]	Lipophilicity [2]	IC50 [3] [nM]	Structure (SMILES)
28	-0.28		CCCCc1nc2ccc([N+](=O)[O-])cc2c(=O)n1Cc1ccc(-c2ccccc2-c2nn[nH]n2)cc1
15			CCCCc1nc2cc(Cl)ccc2c(=O)n1Cc1ccc(-c2ccccc2-c2nn[nH]n2)cc1
10	0		CCCCc1nc2ccccc2c(=O)n1Cc1ccc(-c2ccccc2-c2nn[nH]n2)cc1
26	0.14		CCCCc1nc2ccc(F)cc2c(=O)n1Cc1ccc(-c2ccccc2-c2nn[nH]n2)cc1
29	0.71		CCCCc1nc2ccc(Cl)cc2c(=O)n1Cc1ccc(-c2ccccc2-c2nn[nH]n2)cc1
10			CCCCc1nc2cccc(F)c2c(=O)n1Cc1ccc(-c2ccccc2-c2nn[nH]n2)cc1
	0.88	12	CCCCc1nc2ccc(C(F)(F)F)cc2c(=O)n1Cc1ccc(-c2ccccc2-c2nn[nH]n2)cc1

The next lines start with the compound.

Structure (SMILES)	IC50 [1] [nM]	Lipophilicity [2]	IC50 [3] [nM]
CCCCc1nc2ccc(C)cc2c(=O)n1Cc1ccc(-c2ccccc2C(=O)O)cc1	92		
CCCc1nc2ccc(C)cc2c(=O)n1Cc1ccc(-c2ccccc2-c2nn[nH]n2)cc1	10		
CCCCc1nc2ccc(N)cc2c(=O)n1Cc1ccc(-c2ccccc2-c2nnn[nH]2)cc1	1.3	-1.23	
CCCCc1nc2ccccc2c(=O)n1Cc1ccc(-c2ccccc2C(=O)O)cc1	200		
CCc1nc2ccc(C)cc2c(=O)n1Cc1ccc(-c2ccccc2-c2nn[nH]n2)cc1	> 100		
CCCCc1nc2cc3ccccc3cc2c(=O)n1Cc1ccc(-c2ccccc2C(=O)O)cc1	380		
CCCCCc1nc2ccc(C)cc2c(=O)n1Cc1ccc(-c2ccccc2-c2nnn[nH]2)cc1	6.4		
CCCCc1nc2ccc(I)cc2c(=O)n1Cc1ccc(-c2ccccc2-c2nnn[nH]2)cc1		1.12	12
CCCCc1nc2ccc(OC)cc2c(=O)n1Cc1ccc(-c2ccccc2-c2nnn[nH]2)cc1	5	-0.02	
CCCCc1nc2cccc(C)c2c(=O)n1Cc1ccc(-c2ccccc2C(=O)O)cc1	370		
CCCCc1nc2cc(OC)c(OC)cc2c(=O)n1Cc1ccc(-c2ccccc2-c2nnn[nH]2)cc1	13		
CCCCC(=O)Nc1ccc2nc(CCCC)n(Cc3ccc(-c4ccccc4-c4nnn[nH]4)cc3)c(=O)c2c1	2		
CCCCc1nc2ccc(NC(C)=O)cc2c(=O)n1Cc1ccc(-c2ccccc2-c2nnn[nH]2)cc1	9	-0.97	
CCCCc1nc2ccc(C)cc2c(=O)n1Cc1ccc(-c2ccccc2-c2nnn[nH]2)cc1	4	0.56	
CCCCc1nc2cc(C)ccc2c(=O)n1Cc1ccc(-c2ccccc2C(=O)O)cc1	370		
CCCCc1nc2c(C)cccc2c(=O)n1Cc1ccc(-c2ccccc2C(=O)O)cc1	1400		
